According to US4262127A, “3-Alkoxy-2-alkylisothiazolium salts and their derivatives” (Givaudan Corporation, priority 1979, dated 1981):
Where two headings read alike, the source gives them in different places.

Tested on: Pseudomonas aeruginosa
Experiment: prevention of microbial growth in cutting oil emulsions (Kutwell 30)
Format: cell-based
Details: 3.3% cutting oil emulsion (Kutwell 30), 28° C., read-out: concentration required to prevent microbial growth
Description: In running these tests, two-fold serial dilutions of 6% solutions of the compound in dimethylformamide was added to 3.3% cutting oil emulsions. The emulsions were prepared by diluting with water a commercially available cutting oil concentrate. The emulsions were inoculated with a culture of Pseudomonas aeruginosa and incubated at 28° C. on a rotary shaker. At weekly intervals, the emulsions were examined for bacteria by conventional streakplate methods. The emulsions were then reinoculated with Pseudomonas aeruginosa and reincubated.

[1] = 168 h, incubation period 1 week
[2] = 336 h, incubation period 2 weeks, reinoculated weekly
[3] = 504 h, incubation period 3 weeks, reinoculated weekly
[4] = 672 h, incubation period 4 weeks, reinoculated weekly

Row | SMILES | MIC [1] | MIC [2] | MIC [3] | MIC [4]
1 | COc1ccs[n+]1C | 32 mg/L | 64 mg/L | 64 mg/L | 64 mg/L
2 | C[n+]1sccc1OCc1ccccc1 | < 32 mg/L | < 32 mg/L | < 32 mg/L | < 32 mg/L
3 | COc1c(Br)cs[n+]1C | < 32 mg/L | 32 mg/L | 32 mg/L | 32 mg/L
4 | C=CCOc1ccs[n+]1C | < 32 mg/L | < 32 mg/L | 32 mg/L | 32 mg/L
